# Assay results reported in patent US20240189343A1, “TREATMENT OF VIRUS INFECTIONS” (priority 2021, published 2024).
# Counter-ions that a name gives are not always drawn. Like-named read-outs stand apart in the source and are kept apart here.
# Assays:
# [1] = system: DENV1 (strain Hawaii); assay: microbe, parasite or virus in culture; format: cell-based, dengue virus
# [2] = system: ZIKV African lineage (Strain MP1751); assay: microbe, parasite or virus in culture; format: cell-based, Zika virus
# [3] = system: ZIKV Asian lineage (PF/13); assay: microbe, parasite or virus in culture; format: cell-based, Zika virus
# [4] = system: DENV2 (strain New Guinea C); assay: microbe, parasite or virus in culture; format: cell-based, dengue virus
# [5] = system: YF17D; assay: microbe, parasite or virus in culture; format: cell-based, yellow fever virus
# [6] = system: DENV3 (strain H87); assay: microbe, parasite or virus in culture; format: cell-based, dengue virus
# [7] = system: DENV4 (strain H241); assay: microbe, parasite or virus in culture; format: cell-based, dengue virus
# [8] = system: Huh-7 cells; details: MTT, 48 h
# [9] = system: Zika virus PF13; assay: Zika virus infection of Vero AD cells, immunofluorescence infectivity readout (Example 1); format: cell-based; details: for inhibition of Zika virus infection: Vero AD cells, MOI 0.05 and 0.01, 600, 200, 60 μg/ml, 1 h pre-incubation, 48 h
# Method: (§1) Cells were detached and counted. […] 50 μl of diluted virus or media (uninfected control) was immediately added. […] After 48 h, the plates were washed with PBS, fixed for 30 mins with 4% formaldehyde, washed again with PBS, and stored in PBS at 4° C. until staining. Cells were immunostained with immunofluorescence staining. Briefly, any residual formaldehyde was quenched with 50 mM ammonium chloride, after which cells were permeabilised (0.1% Triton X100) and stained with an antibody recognizing flavivirus envelope protein (Millipore, MAB10216). The primary antibodies were detected with an Alexa-488 conjugate secondary antibody (Life Technologies, A11001), and nuclei were stained with Hoechst. […] Normalized percentages of inhibition were calculated using the following formula: […]
# [10] = system: HeLa Kyoto cells; assay: MTT cytotoxicity on uninfected HeLa Kyoto cells (Example 1); details: 600, 200, 60 μg/ml
# [11] = system: Vero AD cells; assay: MTT cytotoxicity on uninfected Vero AD cells (Example 1); details: 600, 200, 60 μg/ml
# [12] = system: HeLa Kyoto cells; assay: MTT cytotoxicity in HeLa Kyoto cells (Example 2); details: 48 h
# [13] = system: Huh-7 and HeLa Kyoto cells; assay: MTT cytotoxicity, Example 2, cell line not specified in the statement; details: highest concentration tested (10 mg/ml); no cytotoxicity at the other concentrations
# [14] = system: Zika virus PF13; assay: Zika virus infection of HeLa Kyoto cells, immunofluorescence infectivity readout (Example 1); format: cell-based; details: MOI 0.5, 3 and 5, 600, 200, 60 μg/ml, 1 h pre-incubation, 48 h
# Method: as §1
# [15] = system: rats; details: cited from earlier work
# [16] = system: Zika virus; details: 200 μg/ml; Vero cells; cited from earlier work
compound,measurement,setting,value
"CC[C@@]1([C@@H]2O[C@@H]([C@H]3O[C@@](O)(CO)[C@H](C)C[C@@H]3C)C[C@@H]2C)CC[C@H]([C@]2(C)CC[C@]3(C[C@H](O)[C@@H](C)[C@@H]([C@@H](C)[C@@H](OC)[C@H](C)C(=O)O)O3)O2)O1 [Monensin, Monensin sodium salt, reference compound]",EC50,"[1]; Dengue virus, DENV1, Huh-7",1.19 nM
same,EC50,"[2]; Zika virus, HeLa Kyoto",70.7 nM
same,EC50,"[3]; Zika virus, HeLa Kyoto",68.1 nM
same,EC50,"[4]; Dengue virus, DENV2, Huh-7",0.88 nM
same,EC50,"[5]; Yellow fever virus, Huh-7",6.54 nM
same,EC50,"[6]; Dengue virus, DENV3, Huh-7",0.69 nM
same,EC50,"[7]; Dengue virus, DENV4, Huh-7",2.61 nM
dextran sulfate [listing 1 of 3 here],IC50 (inhibition of infection),[1],≤ 600 µg/mL
same,inhibition of virus infection into human cells,[1],> 90%
same,EC50,[1]; 48 h,290 µg/mL
same,TC50,[8]; table line Dengue virus 1 Hawaii strain (Huh-7),>10000 µg/mL
same,TC50,[8]; table line Dengue virus 2 New Guinea C strain (Huh-7),>10000 µg/mL
same,TC50,[8]; table line Dengue virus 3 H87 strain (Huh-7),>10000 µg/mL
same,TC50,[8]; table line Dengue virus 4 H241 strain (Huh-7),>10000 µg/mL
same,TC50,[8]; table line Yellow Fever virus 17D strain (Huh-7),>10000 µg/mL
same,% of infection inhibition,"[9]; 200 μg/ml, Vero cells, FIG. 2A (MOI 0.05)",more than 80%
same,inhibition of Zika virus infection,[9],significant and dose dependent inhibition
same,inhibition of Zika virus infection,[9]; listed as dextran sulfate,inhibits Zika virus infection in Vero cells in a concentration dependent manner
same,IC50 (inhibition of infection),[2],less than 0.140 mg/ml
same,EC50,[2]; 48 h,60 µg/mL
same,IC50 (inhibition of infection),[3],less than 0.140 mg/ml
same,inhibition of virus infection into human cells,[3],> 90%
same,EC50,[3]; 48 h,140 µg/mL
same,cytotoxicity (MTT),[10],No significant cytotoxicity
same,cytotoxicity (MTT),[11],No significant cytotoxicity
same,TC50,[12]; table line Zika virus African strain (HeLa Kyoto),>10000 µg/mL
same,TC50,[12]; table line Zika virus Asian strain (HeLa Kyoto),>10000 µg/mL
same,IC50 (inhibition of infection),[4],≤ 600 µg/mL
same,EC50,[4]; 48 h,120 µg/mL
same,IC50 (inhibition of infection),[5],less than 0.05 mg/ml
same,inhibition of virus infection into human cells,[5],> 90%
same,EC50,[5]; 48 h,40 µg/mL
same,cytotoxicity (maximal),[13],≤ 16%
same,IC50 (inhibition of infection),[6],≤ 600 µg/mL
same,EC50,[6]; 48 h,30 µg/mL
same,inhibition of Zika virus infection,[14],significant and dose dependent inhibition
same,inhibition of Zika virus infection,[14]; listed as dextran sulfate,inhibits Zika virus infection in human Hela cells in a concentration dependent manner
same,IC50 (inhibition of infection),[7],≤ 600 µg/mL
same,EC50,[7]; 48 h,610 µg/mL
dextran sulfate [listing 2 of 3 here],toxicity to rats,[15],highly toxic
dextran sulfate [listing 3 of 3 here],% infection inhibition,[16],about 60%
